Results reported in article PMC12096834, “Antimicrobial peptide plectasin recombinantly produced in Escherichia coli disintegrates cell walls of gram-positive bacteria, as proven by transmission electron and atomic force microscopy” (Journal of Bacteriology, 2025).

Assays:
Format in all cases: cell-based
Streptococcus pneumoniae = assay: TEM quantification of cells with visible damage
Protocol: (§1) Suspensions of gram-positive bacteria were prepared by taking bacterial colonies out of overnight grown agar plates and resuspending them in MHB. The suspension was set to an OD625 extinction of 0.15–0.20 corresponding to a bacterial cell density of approximately 2 × 10^8 CFU/mL. Then, 3 × 1 mL of suspension was transferred into a 2-mL reaction tube and mixed with either plectasin, CASPON-plectasin, or PBS buffer to obtain volume conditions. The concentration for plectasin was 4 x MIC, and CASPON-plectasin was of the same molar quantity as plectasin. After incubation, the bacterial suspensions were washed with PBS three times, using mild centrifugation conditions for each wash cycle (3,000 g, 15 minutes) to avoid cell damage. Prior to sample preparation, mesh copper grids were pretreated with pioloform film and a thin carbon layer. Additionally, the grids were plasma-cleaned for 10 seconds. All samples were prepared by a negative staining procedure. Sample droplets were placed on copper grids for 10 minutes. Afterward, the grids were placed on a 2% glutaraldehyde in 0.1 M phosphate buffer, washed three times with HQ water, and stained with 1% uranyl acetate for 30 seconds. Grids were then analyzed in the TEM FEI Tecnai G^2 200 kV (Thermo Fisher Scientific, Waltham, MA) under high vacuum with 160 kV. For quantification, each condition (untreated, plectasin-treated, and CASPON-plectasin-treated) and each bacterial strain (the four mentioned above) were analyzed using two independent grid squares per biological duplicate, thus yielding a total of four grid squares per condition. Grid squares comprising ≥11 cells were selected for analysis, and the cells were counted and categorized as “no visible damage” or “visible damage”. Percentages and standard deviations were subsequently calculated for each condition. An example of counting the cells can be found in the supplementary material (Fig. S2).

Listeria monocytogenes = assay: TEM quantification of cells with visible damage
Protocol: as §1

Staphylococcus aureus [1] = assay: TEM quantification of cells with visible damage
Protocol: as §1

Enterococcus faecalis = assay: TEM quantification of cells with visible damage
Protocol: as §1

Staphylococcus aureus [2] = assay: AFM cell thickness, stiffness and roughness; conditions: plectasin 4 x MIC, CASPON-plectasin same molar quantity, mean ± SD of 20 measurements; for Stiffness: AFM force spectroscopy, untreated 5.3 ± 2.3
Protocol: All AFM measurements were performed on a Vecoo-Bruker AFM (Diamond, Chilton, UK), including imaging and force distance measurement. Before and after measurements, the triangular cantilever was cleaned with EtOH and acetone. Sensitivity and the spring constant were calibrated by the thermal tune method by making use of the equipartition theorem, preceded by continued ramping. After calibration, the spring constant was set to 0.4017 N/m for performing measurements.
Bacterial suspensions were prepared by taking bacterial colonies out of overnight grown agar plates and resuspending them in MHB. The suspension was set to an OD625 extinction of 0.15–0.20 corresponding to a bacterial cell density of approximately 2 × 10^8 CFU/mL. Then, 3 × 1 mL of suspension was transferred into a 2-mL reaction tube and mixed with either plectasin, CASPON-plectasin, or PBS buffer to obtain volume conditions. The concentration for plectasin was 4 x MIC, and CASPON-plectasin was of the same molar quantity as plectasin. After incubation, the bacterial suspensions were washed with PBS three times, using mild centrifugation conditions for each wash cycle (3,000 g, 15 minutes) to avoid cell damage. The washed bacterial suspension was transferred to borosilicate glass slides (24 mm diameter, 0.1 mm thickness, Menzel Gläser, Braunschweig, Germany) and left to adhere to the surface (electrostatics) for 1 hour. Afterward, the slides were washed with MilliQ water and transferred to AFM.
Bacterial images were visualized by square areas of 2 × 2 µm^2 up to 25 × 25 µm^2 with a resolution of 512 × 512 pixels. At least 15 images were taken per sample with different square dimensions for proper visualization. Surface roughness and shapes of the bacterial cell were estimated using Gwyddion software after applying a mean filter to the raw images. A total of 20 measurements were taken on cells for each parameter, providing enough values for statistical evaluation. For additional information and an illustration of the determination principle, please refer to the supplementary material (Fig. S3), which includes an example on S. aureus. By using the following equations, the surface roughness of a selected area of this flattened area was calculated from the standard deviation in the height image. The mean roughness (Ra) and the root-mean-square roughness (Rq or RMS) were used to characterize the surface of different samples:
After the position of the bacteria was determined, force spectroscopy was performed. Measurement of the central region of bacteria was performed with an approach speed of 10 µm/s and a maximum force of 2 nN. A curve length of 1 µm and a sampling rate of 2 kHz were used. At least 20 bacteria per sample were measured. Analysis of the force distance curves was performed using the software NanoScope Analysis 1.5. For calculating the stiffness of each bacterial cell, the following question was utilized:
where keff is the effective stiffness (received from the slope of the measured curve), ksample is the stiffness of the sample (bacterial cell), and kspring is the spring constant (0.4017 N/m). All constants have the unit N/m. Rearrangement of the formula leads to the following relation: […]
Measurements were pooled, and properties were calculated as described above. For each parameter, 20 measurements were used to obtain appropriate statistical values. Analysis of variance (ANOVA) was performed, followed by Student’s t-test, which is a statistical procedure that compares the averages of two independent groups (plectasin/CASPON-plectasin treated vs untreated) to determine significance in the surface roughness and stiffness of bacteria. Significances are indicated in figures and reported as “ns” for P > 0.05, “*” for P ≤ 0.05, “**” for P ≤ 0.01, and “***” for P ≤ 0.001.

`CC[C@H](C)[C@@H]1NC(=O)[C@H](CO)NC(=O)[C@H](CCCCN)NC(=O)[C@@H]2CSSC[C@@H](C(=O)N[C@@H](Cc3ccc(O)cc3)C(=O)O)NC(=O)[C@H](CCCCN)NC(=O)[C@@H]3CSSC[C@H](NC(=O)[C@H](CCC(N)=O)NC(=O)[C@H](CCSC)NC(=O)[C@H](CC(=O)O)NC(=O)[C@H](CC(=O)O)NC(=O)[C@H](CCC(=O)O)NC(=O)[C@H](CC(=O)O)NC(=O)[C@H](Cc4c[nH]c5ccccc45)NC(=O)[C@@H]4CCCN4C(=O)CNC(=O)[C@H](CC(N)=O)NC(=O)[C@@H](NC(=O)CNC(=O)[C@H](Cc4ccccc4)NC(=O)CN)CSSC[C@H](NC(=O)[C@H](Cc4ccc(O)cc4)NC(=O)CNC(=O)CNC(=O)[C@H](CCCCN)NC(=O)[C@H](Cc4ccc(O)cc4)NC(=O)CNC(=O)[C@H](CCCCN)NC1=O)C(=O)N[C@@H](C)C(=O)N[C@@H](CCCCN)C(=O)NCC(=O)NCC(=O)N[C@@H](Cc1ccccc1)C(=O)N[C@@H](C(C)C)C(=O)N3)C(=O)N[C@@H](Cc1c[nH]cn1)C(=O)N[C@@H](CC(N)=O)C(=O)N[C@@H](Cc1c[nH]cn1)C(=O)N2` [Plectasin, plectasin] was tested, and the “No visible damage (%)” value (Streptococcus pneumoniae; Grid Square 1) was 11.11%, the “Visible damage (%)” value (Streptococcus pneumoniae; Grid Square 1) was 88.89% and the “No visible damage (%)” value (Streptococcus pneumoniae; Grid Square 2) was 16.22%. For the same molecule, the “Visible damage (%)” value (Streptococcus pneumoniae; Grid Square 2) was 83.78%, the “No visible damage (%)” value (Streptococcus pneumoniae; Grid Square 3) was 13.33% and the “Visible damage (%)” value (Streptococcus pneumoniae; Grid Square 3) was 86.67%. The “No visible damage (%)” value (Streptococcus pneumoniae; Grid Square 4) was 8.33%, the “Visible damage (%)” value (Streptococcus pneumoniae; Grid Square 4) was 91.67% and the “cells with visible damage” value (Streptococcus pneumoniae; negative staining, plectasin 4 x MIC, CASPON-plectasin same molar quantity, mean ± SD of four grid squares (two biological replicates), untreated 15.20, SD) was 87.75% ± 2.90%. The “cells with no visible damage” value (Streptococcus pneumoniae; negative staining, plectasin 4 x MIC, CASPON-plectasin same molar quantity, mean ± SD of four grid squares, untreated 84.80% ± 3.71%) was 12.25%, the “No visible damage (%)” value (Listeria monocytogenes; Grid Square 1) was 9.09% and the “Visible damage (%)” value (Listeria monocytogenes; Grid Square 1) was 90.91%. The “No visible damage (%)” value (Listeria monocytogenes; Grid Square 2) was 34.48%, the “Visible damage (%)” value (Listeria monocytogenes; Grid Square 2) was 65.52% and the “No visible damage (%)” value (Listeria monocytogenes; Grid Square 3) was 18.18%. The “Visible damage (%)” value (Listeria monocytogenes; Grid Square 3) was 81.82%, the “No visible damage (%)” value (Listeria monocytogenes; Grid Square 4) was 18.75% and the “Visible damage (%)” value (Listeria monocytogenes; Grid Square 4) was 81.25%. For the same molecule, the “cells with visible damage” value (Listeria monocytogenes; negative staining, plectasin 4 x MIC, CASPON-plectasin same molar quantity, mean ± SD of four grid squares (two biological replicates), untreated 6.97, SD) was 79.87% ± 9.13%, the “cells with no visible damage” value (Listeria monocytogenes; negative staining, plectasin 4 x MIC, CASPON-plectasin same molar quantity, mean ± SD of four grid squares, untreated 93.03% ± 4.81%) was 20.13% and the “No visible damage (%)” value (Staphylococcus aureus [1]; Grid Square 1) was 7.69%. The “Visible damage (%)” value (Staphylococcus aureus [1]; Grid Square 1) was 92.31%, the “No visible damage (%)” value (Staphylococcus aureus [1]; Grid Square 2) was 16.67% and the “Visible damage (%)” value (Staphylococcus aureus [1]; Grid Square 2) was 83.33%. The “No visible damage (%)” value (Staphylococcus aureus [1]; Grid Square 3) was 5.88%, the “Visible damage (%)” value (Staphylococcus aureus [1]; Grid Square 3) was 94.12% and the “No visible damage (%)” value (Staphylococcus aureus [1]; Grid Square 4) was 11.76%. The “Visible damage (%)” value (Staphylococcus aureus [1]; Grid Square 4) was 88.24%, the “cells with visible damage” value (Staphylococcus aureus [1]; negative staining, plectasin 4 x MIC, CASPON-plectasin same molar quantity, mean ± SD of four grid squares (two biological replicates), untreated 10.10, SD) was 89.50% ± 4.15% and the “cells with no visible damage” value (Staphylococcus aureus [1]; negative staining, plectasin 4 x MIC, CASPON-plectasin same molar quantity, mean ± SD of four grid squares, untreated 89.90% ± 4.88%) was 10.50%. The “No visible damage (%)” value (Enterococcus faecalis; Grid Square 1) was 29.41%, the “Visible damage (%)” value (Enterococcus faecalis; Grid Square 1) was 70.59% and the “No visible damage (%)” value (Enterococcus faecalis; Grid Square 2) was 28.57%. For the same molecule, the “Visible damage (%)” value (Enterococcus faecalis; Grid Square 2) was 71.43%, the “No visible damage (%)” value (Enterococcus faecalis; Grid Square 3) was 21.05% and the “Visible damage (%)” value (Enterococcus faecalis; Grid Square 3) was 78.95%. The “No visible damage (%)” value (Enterococcus faecalis; Grid Square 4) was 27.78%, the “Visible damage (%)” value (Enterococcus faecalis; Grid Square 4) was 72.22% and the “cells with visible damage” value (Enterococcus faecalis; negative staining, plectasin 4 x MIC, CASPON-plectasin same molar quantity, mean ± SD of four grid squares (two biological replicates), untreated 4.07, SD) was 73.30% ± 3.31%. For the same molecule, the “cells with no visible damage” value (Enterococcus faecalis; negative staining, plectasin 4 x MIC, CASPON-plectasin same molar quantity, mean ± SD of four grid squares, untreated 95.93% ± 2.41%) was 26.70%, the Stiffness (Staphylococcus aureus [2]) was “approximately 4 N/m” and the Stiffness (Staphylococcus aureus [2]; SD) was 3.7 ± 1.7 N/m. For the same molecule, the “Ra (mean roughness)” value (Staphylococcus aureus [2]; AFM, untreated 19.4 ± 3.5, SD) was 24.76 ± 6.7 nm, the “Rq (root-mean-square roughness)” value (Staphylococcus aureus [2]; AFM, untreated 24.0 ± 4.4, SD) was 30.9 ± 8.0 nm and the Cell thickness (Staphylococcus aureus [2]; AFM, untreated 485.9 ± 26.5, SD) was 467.2 ± 45.1 nm.
